Test results from patent US20250090576A1, “METHODS FOR TREATING NONTUBERCULOUS MYCOBACTERIA DISEASES” (Microbion Corporation, priority 2022, published 2025).
In brackets after ≈: the same amount, converted by molar mass. Like-named read-outs stand apart in the source and are kept apart here.

Columns and labels:
[1] = test system: M. abscessus strain 19977; test: MIC broth dilution, growth by turbidity/OD 595 nm; format: cell-based; details: for Sensitivity phenotype (R/I/S): 19977; for MIC: Mycobacteroides abscessus
Protocol: (§1) Mycobacteria strains were used to determine MICs of BisEDT and amikacin. Strains included cystic fibrosis patient isolates from National Jewish Hospital. A range of high dose to low dose of antibiotics was used to determine bacteria susceptibility. M. avium strain 104, M. avium strain 3388, and CF patient strain DNA00133 were grown to log phase (7 days) while M. abscessus strain 19977, CF patient strain DNA00703, and CF patient strain DNA01715 achieved log phase (4 days) on 7H10 middlebrook media plates supplemented with 10% OADC (Oleic acid, Albumin, Dextrose, Catalase). […] For BisEDT, two types of compound physical states were tested. First, BisEDT was solubilized in DMSO (furthermore labeled soluble BisEDT). Second, BisEDT was made in suspension to mimic in vivo studies (furthermore labeled insoluble BisEDT). […] Control tubes containing no antibiotics were also included for each antibiotic tested. Inoculums of […] bacteria for each strain was measured with optical density (O.D.) at 595 nm. 10 μl of these inoculums were added to each antibiotic tube and incubated in a shaking incubator at 37° C. and 200 rpm. Slow growing stains were measured for growth after 10 days incubation while fast growing strains were incubated for 5 days. After incubation, 100 μl from each tube was pulled and placed in a 96-well plate for O.D. reading. Turbidity determined sensitive, intermediate, or resistant bacteria.

[2] = test system: M. avium strain 104 (MAH 104); test: MIC broth dilution, growth by turbidity/OD 595 nm; format: cell-based; details: for Sensitivity phenotype (R/I/S): MAH 104; for MIC: Mycobacterium avium
Protocol: as §1

[3] = test system: M. avium strain 3388 (MAH 3388); test: MIC broth dilution, growth by turbidity/OD 595 nm; format: cell-based; details: for Sensitivity phenotype (R/I/S): MAH 3388; for MIC: Mycobacterium avium
Protocol: as §1

[4] = test system: CF patient strain DNA00133; test: MIC broth dilution, growth by turbidity/OD 595 nm; format: cell-based, M. avium; details: for MIC: Mycobacterium avium
Protocol: as §1

[5] = test system: CF patient strain DNA00703; test: MIC broth dilution, growth by turbidity/OD 595 nm; format: cell-based, M. abscessus; details: for MIC: Mycobacteroides abscessus
Protocol: as §1

[6] = test system: CF patient strain DNA01715; test: MIC broth dilution, growth by turbidity/OD 595 nm; format: cell-based, M. abscessus; details: for MIC: Mycobacteroides abscessus
Protocol: as §1

[7] = test system: M. abscessus MABS4; test: MIC (Table 8); format: cell-based; details: Mycobacteroides abscessus
[8] = test system: M. abscessus MABS7; test: MIC (Table 8); format: cell-based; details: Mycobacteroides abscessus
[9] = test system: M. abscessus MABS11; test: MIC (Table 8); format: cell-based; details: Mycobacteroides abscessus

SMILES: NCC[C@H](O)C(=O)N[C@@H]1C[C@H](N)[C@@H](O[C@H]2O[C@H](CN)[C@@H](O)[C@H](O)[C@H]2O)[C@H](O)[C@H]1O[C@H]1O[C@H](CO)[C@@H](O)[C@H](N)[C@H]1O [amikacin]
- Sensitivity phenotype (R/I/S) ([1]; 1 μg/mL): R
- Sensitivity phenotype (R/I/S) ([1]; 2 μg/mL): R
- Sensitivity phenotype (R/I/S) ([1]; 4 μg/mL): R
- Sensitivity phenotype (R/I/S) ([1]; 8 μg/mL): R
- Sensitivity phenotype (R/I/S) ([1]; 16 μg/mL): R
- Sensitivity phenotype (R/I/S) ([1]; 32 μg/mL): S
- Sensitivity phenotype (R/I/S) ([1]; 64 μg/mL): S
- Sensitivity phenotype (R/I/S) ([1]; 128 μg/mL): S
- MIC ([1]; M. abscessus strain 19977 (Table 4), read-out: MIC determined for the strain, used for treatment of infected macrophages): 32 µg/mL (≈ 54.6 µM)
- MIC ([1]; M. abscessus strain 19977, read-out: MIC): 32 µg/mL (≈ 54.6 µM)
- Sensitivity phenotype (R/I/S) ([2]; 1 μg/mL): R
- Sensitivity phenotype (R/I/S) ([2]; 2 μg/mL): R
- Sensitivity phenotype (R/I/S) ([2]; 4 μg/mL): R
- Sensitivity phenotype (R/I/S) ([2]; 8 μg/mL): S
- Sensitivity phenotype (R/I/S) ([2]; 16 μg/mL): S
- Sensitivity phenotype (R/I/S) ([2]; 32 μg/mL): S
- Sensitivity phenotype (R/I/S) ([2]; 64 μg/mL): S
- Sensitivity phenotype (R/I/S) ([2]; 128 μg/mL): S
- MIC ([2]; M. avium strain 104 (Table 3), read-out: MIC determined for the strain, used for treatment of infected macrophages): 8 µg/mL (≈ 13.7 µM)
- MIC ([2]; M. avium strain 104, read-out: MIC): 8 µg/mL (≈ 13.7 µM)
- Sensitivity phenotype (R/I/S) ([3]; 1 μg/mL): R
- Sensitivity phenotype (R/I/S) ([3]; 2 μg/mL): R
- Sensitivity phenotype (R/I/S) ([3]; 4 μg/mL): I
- Sensitivity phenotype (R/I/S) ([3]; 8 μg/mL): S
- Sensitivity phenotype (R/I/S) ([3]; 16 μg/mL): S
- Sensitivity phenotype (R/I/S) ([3]; 32 μg/mL): S
- Sensitivity phenotype (R/I/S) ([3]; 64 μg/mL): S
- Sensitivity phenotype (R/I/S) ([3]; 128 μg/mL): S
- MIC ([3]; M. avium strain 3388 (Table 3), read-out: MIC determined for the strain, used for treatment of infected macrophages): 8 µg/mL (≈ 13.7 µM)
- MIC ([3]; M. avium strain 3388, read-out: MIC): 8 µg/mL (≈ 13.7 µM)
- Sensitivity phenotype (R/I/S) ([4]; 1 μg/mL): R
- Sensitivity phenotype (R/I/S) ([4]; 2 μg/mL): R
- Sensitivity phenotype (R/I/S) ([4]; 4 μg/mL): R
- Sensitivity phenotype (R/I/S) ([4]; 8 μg/mL): R
- Sensitivity phenotype (R/I/S) ([4]; 16 μg/mL): R
- Sensitivity phenotype (R/I/S) ([4]; 32 μg/mL): R
- Sensitivity phenotype (R/I/S) ([4]; 64 μg/mL): R
- Sensitivity phenotype (R/I/S) ([4]; 128 μg/mL): R
- MIC [4]: > 128 µg/mL
- MIC ([4]; M. avium strain 1333 (Table 3), read-out: MIC determined for the strain, used for treatment of infected macrophages): 8 µg/mL (≈ 13.7 µM)
- Sensitivity phenotype (R/I/S) ([5]; 1 μg/mL): R
- Sensitivity phenotype (R/I/S) ([5]; 2 μg/mL): R
- Sensitivity phenotype (R/I/S) ([5]; 4 μg/mL): R
- Sensitivity phenotype (R/I/S) ([5]; 8 μg/mL): R
- Sensitivity phenotype (R/I/S) ([5]; 16 μg/mL): I
- Sensitivity phenotype (R/I/S) ([5]; 32 μg/mL): I
- Sensitivity phenotype (R/I/S) ([5]; 64 μg/mL): S
- Sensitivity phenotype (R/I/S) ([5]; 128 μg/mL): S
- MIC ([5]; M. abscessus strain 00703 (Table 4), read-out: MIC determined for the strain, used for treatment of infected macrophages): 64 µg/mL (≈ 109 µM)
- MIC ([5]; M. abscessus strain from patient 00703, read-out: MIC): 64 µg/mL (≈ 109 µM)
- Sensitivity phenotype (R/I/S) ([6]; 1 μg/mL): R
- Sensitivity phenotype (R/I/S) ([6]; 2 μg/mL): R
- Sensitivity phenotype (R/I/S) ([6]; 4 μg/mL): R
- Sensitivity phenotype (R/I/S) ([6]; 8 μg/mL): I
- Sensitivity phenotype (R/I/S) ([6]; 16 μg/mL): S
- Sensitivity phenotype (R/I/S) ([6]; 32 μg/mL): S
- Sensitivity phenotype (R/I/S) ([6]; 64 μg/mL): S
- Sensitivity phenotype (R/I/S) ([6]; 128 μg/mL): S
- MIC ([6]; M. abscessus strain 01715 (Table 4), read-out: MIC determined for the strain, used for treatment of infected macrophages): 16 µg/mL (≈ 27.3 µM)
- MIC ([6]; M. abscessus strain from patient 01715, read-out: MIC): 16 µg/mL (≈ 27.3 µM)
- MIC [7]: 4 µg/mL (≈ 6.83 µM)
- MIC [8]: 2 µg/mL (≈ 3.42 µM)
- MIC [9]: 1 µg/mL (≈ 1.71 µM)
